Laboratory results reported in patent US7973162B2, “Modulators of muscarinic receptors” (Vertex Pharmaceuticals Incorporated, priority 2007, dated 2011).

Experiments:
Type in all cases: cell-based
M3 muscarinic receptor = biological target: T1, M3 muscarinic receptor (Homo sapiens, UniProt P20309); experiment: Functional mobilization of intracellular calcium (FLIPR), M3-CHO cells; conditions: for Emax / M3 Efficacy: 100% efficacy = maximum response obtained with the Carbachol control; for EC50: CHO cells expressing M3, calcium mobilization
T1 construct: expressed in transfected cells; host or cells: CHO (M3-CHO)
Method: (§1) Functional Mobilization of Intracellular Calcium to Determine Muscarinic Receptor Activity:
(§2) CHO cells expressing muscarinic receptors (M1 to M5) are grown as monolayers in tissue culture flasks at 37° C. in a humidified atmosphere containing 5% CO2 and passaged every 3-5 days. The growth media is Dulbecco's modified eagles medium (DMEM, Gibco Cat# 12430-054), containing 25 mM Hepes and supplemented with Fetal Bovine Serum (Hyclone, cat #SH30071.03), 0.1 mM of MEM non-essential amino acids (GIBCO, Cat #11140-050), 1 mM MEM Sodium Pyruvate (GIBCO Cat #11360-070) and 100 units/ml of Penicillin G and 100 μg/ml of Streptomycin (GIBCO Cat #15140-122). The recombinant muscarinic receptor cell lines are grown under antibiotic pressure with media containing 25 μg/ml zeocin and 500 μg/ml G418 (M1-CHO), 4 μg/ml puromycin, 50 μg/ml zeocin and 2.5 μg/ml blasticidin (M2 and M4-CHO) or 50 μg/ml zeocin and 4 μg/ml puromycin (M3 and M5-CHO).
(§3) Cells are harvested at 80-90% confluence using Versene (GIBCO Cat #15040-066), collected by centrifugation and seeded 18-24 hrs prior to running the calcium assay at a density of 5,000-10,000 cells/well in […], clear-bottomed 384-well plates (BD Biocoat, poly-D-lysine, Cat#356663). The day of the experiment, the cells are washed with a plate washer (Bioteck Instruments, ELX 405) using bath1 buffer (140-mM NaCl, 4.5-mM KCl, 2-mM CaCl2, 1-mM MgCl2, 10-mM Hepes-Na, 10-mM Glucose, pH 7.4, with NaOH) containing 1 mM Probenecid. Next, the calcium dye Fluo-3 (25 μl/well of Fluo-3 AM at 4 μM, Molecular Probes F-1241, in Bath 1 buffer containing 1 mM Probenecid) is added to the 25 μl of Bath 1 remaining in each well after the plate wash and the dye is loaded at 37° C. in the tissue culture incubator for 60-90 min. The fluorescent dye is removed using the plate washer with Bath 1 containing 1 mM Probenecid, leaving 25 μl/well of this solution after the wash. Alternatively, cells can be loaded with the calcium indicator from Molecular Devices (Calcium 3 Assay Reagents, Cat #R7181) adding 5 μl of a 5× solution dye in Bath 1 containing 1 mM Probenecid (10 ml per dye flask cat #R7182 to generate a solution 20×) to 20 μl of the same buffer. After loading for 60 min, the experiment can be run without having to remove the dye.
(§4) Compounds are prepared at a 2× fold concentration in a 96-well plate (round bottom, Costar Corning cat #3656), by reconstituting the pre-spotted compounds in bath 1 containing 1 mM probenecid. The final concentration DMSO is 0.5%, and the amount of DMSO is normalized across the assay plate. To determine an agonist action of the compounds on muscarinic receptors, the reconstituted compounds are added (25 μl compound/well) to the cell assay plate (containing 25 μl/well) using the multi-channel robotic system of the FLIPR 3 Instrument (Molecular Devices, Sunnyvale, Calif.). To determine a functional inhibitory action of the compounds on muscarinic receptors, the reconstituted compounds are added (25 μl compound/well) to the assay plate and pre-incubated for 15 min prior to adding 25 μl of Carbachol at 3× the EC80 for each muscarinic subtype. Alternatively, the compounds can be co-applied simultaneously with the agonist. In both assay modes, the fluorescence is recorded for 60 sec (excitation wavelength is […] and emission wavelength 540 nm) using the FLIPR 3 instrument.
(§5) The potency, efficacy and selectivity of the muscarinic compounds were evaluated by screening the compound activity across the whole family (M1 to M5 cells). Compounds were also screened for activity on other proteins such as other GPCRs and ion channels to determine selectivity on M4 receptors.
(§6) Examples of activities and efficacies of the muscarinic compounds of formulae (I, Ia, and Ib) on modulating M1 and M4 receptors are shown below in Table 3. […]

M1 muscarinic receptor = biological target: T2, M1 muscarinic receptor (Homo sapiens, UniProt P11229); experiment: Functional mobilization of intracellular calcium (FLIPR), M1-CHO cells; conditions: for Emax / M1 Efficacy: 100% efficacy = maximum response obtained with the Carbachol control; for EC50: CHO cells expressing M1, calcium mobilization
T2 construct: expressed in transfected cells; host or cells: CHO (M1-CHO)
T2 sequence (P11229 1-460): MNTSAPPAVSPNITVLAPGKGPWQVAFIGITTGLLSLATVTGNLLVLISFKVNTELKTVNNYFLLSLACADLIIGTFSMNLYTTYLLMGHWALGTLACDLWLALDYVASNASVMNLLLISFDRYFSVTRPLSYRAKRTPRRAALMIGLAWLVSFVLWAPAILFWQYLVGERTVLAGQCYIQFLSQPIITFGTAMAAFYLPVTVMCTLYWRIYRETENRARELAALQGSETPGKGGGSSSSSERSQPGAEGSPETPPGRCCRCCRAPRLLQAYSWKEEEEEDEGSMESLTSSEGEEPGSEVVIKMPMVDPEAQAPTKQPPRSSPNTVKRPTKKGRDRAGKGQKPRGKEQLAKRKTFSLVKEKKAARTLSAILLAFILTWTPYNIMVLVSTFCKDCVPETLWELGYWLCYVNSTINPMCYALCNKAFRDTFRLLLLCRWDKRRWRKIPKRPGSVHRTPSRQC
Method: as §1, §2, §3, §4, §5, §6

M2 muscarinic receptor = biological target: T3, M2 muscarinic receptor (Homo sapiens, UniProt P08172); experiment: Functional mobilization of intracellular calcium (FLIPR), M2-CHO cells; conditions: for Emax / M2 Efficacy: 100% efficacy = maximum response obtained with the Carbachol control; for EC50: CHO cells expressing M2, calcium mobilization
T3 construct: expressed in transfected cells; host or cells: CHO (M2-CHO)
T3 sequence (P08172 1-466): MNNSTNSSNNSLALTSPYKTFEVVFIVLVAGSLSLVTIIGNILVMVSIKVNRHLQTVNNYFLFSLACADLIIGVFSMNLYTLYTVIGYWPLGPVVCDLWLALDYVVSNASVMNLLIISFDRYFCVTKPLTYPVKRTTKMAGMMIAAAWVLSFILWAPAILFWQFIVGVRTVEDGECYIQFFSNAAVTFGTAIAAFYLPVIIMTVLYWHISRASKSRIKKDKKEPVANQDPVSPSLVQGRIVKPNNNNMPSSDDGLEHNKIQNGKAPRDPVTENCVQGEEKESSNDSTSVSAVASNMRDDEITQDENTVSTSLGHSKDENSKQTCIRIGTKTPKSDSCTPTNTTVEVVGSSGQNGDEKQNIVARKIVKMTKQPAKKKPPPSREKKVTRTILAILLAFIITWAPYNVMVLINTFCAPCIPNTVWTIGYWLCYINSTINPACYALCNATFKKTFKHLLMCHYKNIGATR
Method: as §1, §2, §3, §4, §5, §6

M4 muscarinic receptor = biological target: T4, M4 muscarinic receptor (Homo sapiens, UniProt P08173); experiment: Functional mobilization of intracellular calcium (FLIPR), M4-CHO cells; conditions: for Emax / M4 Efficacy: 100% efficacy = maximum response obtained with the Carbachol control; for EC50: CHO cells expressing M4, calcium mobilization
T4 construct: expressed in transfected cells; host or cells: CHO (M4-CHO)
T4 sequence (P08173 1-479): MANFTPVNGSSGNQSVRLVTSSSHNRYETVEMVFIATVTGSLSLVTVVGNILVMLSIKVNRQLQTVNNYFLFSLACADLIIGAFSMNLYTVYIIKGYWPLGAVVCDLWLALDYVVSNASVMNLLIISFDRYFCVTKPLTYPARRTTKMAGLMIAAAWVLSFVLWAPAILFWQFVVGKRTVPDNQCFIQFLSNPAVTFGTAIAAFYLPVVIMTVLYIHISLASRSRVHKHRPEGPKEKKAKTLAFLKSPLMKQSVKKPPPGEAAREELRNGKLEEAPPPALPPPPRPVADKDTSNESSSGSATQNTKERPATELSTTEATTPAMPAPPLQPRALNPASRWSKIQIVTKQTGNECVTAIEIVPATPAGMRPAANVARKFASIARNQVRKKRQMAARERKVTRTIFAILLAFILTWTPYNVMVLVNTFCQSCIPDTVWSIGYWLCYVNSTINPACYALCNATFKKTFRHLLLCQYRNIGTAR
Method: as §1, §2, §3, §4, §5, §6

T1 sequence (P20309 whole entry): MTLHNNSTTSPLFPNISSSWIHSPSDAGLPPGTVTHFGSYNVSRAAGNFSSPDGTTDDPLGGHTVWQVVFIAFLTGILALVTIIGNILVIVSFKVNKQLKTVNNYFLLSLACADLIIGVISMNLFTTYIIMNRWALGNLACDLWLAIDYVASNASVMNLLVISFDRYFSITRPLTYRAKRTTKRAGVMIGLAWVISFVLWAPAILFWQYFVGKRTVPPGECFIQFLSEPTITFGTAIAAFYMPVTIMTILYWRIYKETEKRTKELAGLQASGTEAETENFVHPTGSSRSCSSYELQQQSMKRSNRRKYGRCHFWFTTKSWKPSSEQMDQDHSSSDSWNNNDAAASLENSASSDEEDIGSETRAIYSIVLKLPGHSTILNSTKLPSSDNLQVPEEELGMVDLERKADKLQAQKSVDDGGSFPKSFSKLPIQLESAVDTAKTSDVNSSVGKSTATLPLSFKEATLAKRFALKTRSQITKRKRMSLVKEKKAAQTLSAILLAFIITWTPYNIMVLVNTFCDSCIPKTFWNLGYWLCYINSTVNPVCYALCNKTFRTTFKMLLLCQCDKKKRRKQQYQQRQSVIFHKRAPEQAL

Compound	Emax (M3 muscarinic receptor) [%]	EC50 (M3 muscarinic receptor) [µM]	Emax (M1 muscarinic receptor) [%]	EC50 (M1 muscarinic receptor) [µM]	Emax (M2 muscarinic receptor) [%]	EC50 (M2 muscarinic receptor) [µM]	Emax (M4 muscarinic receptor) [%]	EC50 (M4 muscarinic receptor) [µM]	M3 Efficacy (M3 muscarinic receptor)	M1 Efficacy (M1 muscarinic receptor)	M2 Efficacy (M2 muscarinic receptor)	M4 Efficacy (M4 muscarinic receptor)
COCCN1C(=O)C[C@@H]2CC3(CCN(C4CCCCC4)CC3)c3ccccc3[C@@H]21 [Compound 16]	< 25	> 5	< 25	> 5	< 25	> 5	25 to 100	< 2	–	–	–	–
CCOC(=O)N1CCC(N2CCC3(CC2)C[C@H]2CC(=O)N[C@H]2c2ccccc23)CC1 [Compound 17]	–	> 5	–	< 2	–	< 2	–	< 2	+ (efficacy was calculated to be less than 25%)	++ (efficacy was calculated to be from 100% to 25%)	++ (efficacy was calculated to be from 100% to 25%)	++ (efficacy was calculated to be from 100% to 25%)
O=C1CC2CC3(CCN(CC4CCCCC4)CC3)c3ccccc3C2O1 (stereo not shown) [Compound 18]	< 25	> 5	25 to 100	< 2	25 to 100	> 5	25 to 100	< 2	–	–	–	–
O=C1C[C@@H]2CC3(CCN(C4CCCCC4)CC3)c3ccccc3[C@@H]2N1 [Compound 19]	–	> 5	–	< 2	–	2 to 5	–	< 2	+ (efficacy was calculated to be less than 25%)	++ (efficacy was calculated to be from 100% to 25%)	++ (efficacy was calculated to be from 100% to 25%)	++ (efficacy was calculated to be from 100% to 25%)
O=C1CC2CC3(CCN(C4CCCCC4)CC3)c3ccccc3C2O1 (stereo not shown) [Compound 21]	< 25	> 5	25 to 100	< 2	25 to 100	> 5	25 to 100	< 2	–	–	–	–
COCCN1C(=O)C[C@@H]2CC3(CCN(CC4CCCCC4)CC3)c3ccccc3[C@@H]21 [Compound 22]	< 25	> 5	25 to 100	2 to 5	< 25	> 5	25 to 100	< 2	–	–	–	–
CN1C(=O)C[C@@H]2CC3(CCN(C4CCCCC4)CC3)c3ccccc3[C@@H]21 [Compound 23]	< 25	> 5	25 to 100	< 2	25 to 100	< 2	25 to 100	< 2	–	–	–	–
CN1C(=O)C[C@@H]2CC3(CCN(C4CCCCC4)CC3)c3ccccc3[C@@H]21 [Compound 24]	–	> 5	–	> 5	–	> 5	–	< 2	+ (efficacy was calculated to be less than 25%)	++ (efficacy was calculated to be from 100% to 25%)	+ (efficacy was calculated to be less than 25%)	++ (efficacy was calculated to be from 100% to 25%)
O=C1C[C@@H]2CC3(CCN(C[C@@H]4C[C@H]5C=C[C@H]4C5)CC3)c3ccccc3[C@@H]2N1 [Compound 25]	25 to 100	> 5	25 to 100	< 2	25 to 100	< 2	25 to 100	< 2	–	–	–	–
c1ccc2c(c1)C1OCCC1CC21CCN(C2CCCCC2)CC1 (stereo not shown) [Compound 26]	< 25	> 5	25 to 100	> 5	< 25	> 5	< 25	< 2	–	–	–	–
CC(=O)N1CC[C@@H]2CC3(CCN(C4CCCCC4)CC3)c3ccccc3[C@@H]21 [Compound 27]	< 25	> 5	< 25	> 5	< 25	> 5	< 25	> 5	–	–	–	–
